Earlier results on 5 molecules are cited in PubChem BioAssay AID1259409 (Chemical Carcinogenesis Research Information System (CCRIS), 2018).

The data set relates to rodent chemically induced tumor inhibition, incidence and multiplicity. Briefly: CCRIS tumor inhibitor studies.

For the molecule `CCNC(=O)\C=C(C)/C=C/C=C(C)/C=C/C1=C(C)CCCC1(C)C`, the “tumour outcome (control, treated, inhibition, significance)” value by setting is: (Carcinogen: N-BUTYL-N-(4-HYDROXYBUTYL)NITROSAMINE, 3817-11-6, Dose [Inhibitor]: 1.5 MMOL/KG DIET DAILY FOR 153 D STARTING ONE WK AFTER THE FINAL CARCINOGEN DOSE (STUDY DURATION: 210 D), Route [Inhibitor]: ORAL, Species: MOUSE, Strain/Sex: BDF/MALE, Target Tissue: Type of Lesion: URINARY BLADDER: TRANSITIONAL CELL CARCINOMA, Dose [Carcinogen]: 7.5 MG 1/WK FOR 8 WK, Promoter: NONE USED) 35/99 (35%), 19/96 (20%), 43%, p<0.05; (Carcinogen: N-BUTYL-N-(4-HYDROXYBUTYL)NITROSAMINE, 3817-11-6, Dose [Inhibitor]: 1.5 MMOL/KG IN DIET DAILY FOR 153 D STARTING ONE WK AFTER THE LAST CARCINOGEN DOSE (STUDY DURATION: 210 D), Route [Inhibitor]: ORAL, Species: MOUSE, Strain/Sex: BDF/MALE, Target Tissue: Type of Lesion: URINARY BLADDER: TRANSITIONAL CELL CARCINOMA, Dose [Carcinogen]: 7.5 MG 1/WK FOR 8 WK, Promoter: NONE USED) 35/99 (35%), 19/96 (20%), 43%, p<0.05.

Regarding `CC(O)CCC(=O)c1cccnc1` (configuration not stated), the “tumour outcome (control, treated, inhibition, significance)” value (Carcinogen: 4-(METHYLNITROSAMINO)-1-(3-PYRIDYL)-1-BUTANONE, 64091-91-4, Dose [Inhibitor]: 0, 25 UMOL IN 0.1 ML CORN OIL ONCE 2 HR PRIOR TO CARCINOGEN DOSE (STUDY DURATION: 16 WK), Route [Inhibitor]: GAVAGE, Species: MOUSE, Strain/Sex: STRAIN-A/FEMALE, Target Tissue: Type of Lesion: LUNG: ADENOMA, Dose [Carcinogen]: 10 UMOL IN 0.1 ML SALINE ONCE, Promoter: NONE USED) is 100%, 100%, 0%, not significant.

Take `Cl`: the “tumour outcome (control, treated, inhibition, significance)” value runs as follows: (Carcinogen: 1,2-DIMETHYLHYDRAZINE, 540-73-8, Dose [Inhibitor]: 0, 5 G/L IN DRINKING WATER FOR DURATION OF STUDY BEGINNING 7 D PRIOR TO CARCINOGEN TREATMENT (STUDY DURATION: 8 MO), Route [Inhibitor]: ORAL, Species: RAT, Strain/Sex: BD6/MALE, Target Tissue: Type of Lesion: INTESTINE: TUMOR, Dose [Carcinogen]: 20 MG/KG BW 1/WK FOR 20 WK, Promoter: NONE USED) 100%, 100%, 0%, not significant; (Carcinogen: BRACKEN FERN, Dose [Inhibitor]: 20 MG/G DIET/D FOR 12 MO SIMULTANEOUS WITH CARCINOGEN (STUDY DURATION: 12 MO), Route [Inhibitor]: ORAL, Species: RAT, Strain/Sex: ALBINO/?, Target Tissue: Type of Lesion: INTESTINE: TUMOR, Dose [Carcinogen]: 0.33 G IN DIET/D FOR 12 MO, Promoter: NONE USED) 30/30 (100%), 16/23 (70%), 30%, p<0.01; (Carcinogen: BRACKEN FERN, Dose [Inhibitor]: 20 MG/G DIET/D FOR 12 MO SIMULTANEOUS WITH CARCINOGEN (STUDY DURATION: 12 MO), Route [Inhibitor]: ORAL, Species: RAT, Strain/Sex: ALBINO, Target Tissue: Type of Lesion: URINARY BLADDER: TUMOR, Dose [Carcinogen]: 0.33 G IN DIET/D FOR 12 MO, Promoter: NONE USED) 22/30 (73%), 4/23 (17%), 77%, p<0.001; (Carcinogen: N-METHYL-N'-NITRO-N-NITROSOGUANIDINE, 70-25-7, Dose [Inhibitor]: 0, 1% IN DRINKING WATER BEGINNING 1 WK POST CARCINOGEN TREATMENT AND CONTINUING FOR STUDY DURATION (STUDY DURATION: 52 W, Route [Inhibitor]: ORAL, Species: RAT, Strain/Sex: SHR/MALE, Target Tissue: Type of Lesion: STOMACH: ADENOCARCINOMA, Dose [Carcinogen]: 40 ML OF A 25 MG/ML SOLUTION 1/2 D IN DRINKING WATER FOR 25 WK) 65%, 20%, 69%, p<0.02; (Carcinogen: N-METHYL-N'-NITRO-N-NITROSOGUANIDINE, 70-25-7, Dose [Inhibitor]: 0, 1% IN DRINKING WATER BEGINNING 1 WK POST CARCINOGEN TREATMENT AND CONTINUING FOR STUDY DURATION (STUDY DURATION: 52 W, Route [Inhibitor]: ORAL, Species: RAT, Strain/Sex: WKR/MALE, Target Tissue: Type of Lesion: STOMACH: ADENOCARCINOMA, Dose [Carcinogen]: 40 ML OF A 25 MG/ML SOLUTION 1/2 D IN DRINKING WATER FOR 25 WK) 25%, 20%, 20%, not calculated; (Carcinogen: N-METHYL-N'-NITRO-N-NITROSOGUANIDINE, 70-25-7, Dose [Inhibitor]: 0, 1% IN DRINKING WATER FOR 27 WK BEGINNING POST CARCINOGEN DOSE (STUDY DURATION: 52 WK), Route [Inhibitor]: ORAL, Species: RAT, Strain/Sex: WISTAR/MALE, Target Tissue: Type of Lesion: STOMACH: TUMOR, Dose [Carcinogen]: 25 UG/ML IN DRINKING WATER FOR 25 WK, Promoter: DEOXYCORTICOSTERONE ACETATE, 56-47-3) 11/20 (55%), 3/18 (17%), 69%, p<0.05. In addition, the “tumour outcome (control, treated, inhibition, significance)” value reads like this: (Carcinogen: N-METHYL-N'-NITRO-N-NITROSOGUANIDINE, 70-25-7, Dose [Inhibitor]: 0, 4% IN DIET FOR 25 WK BEGINNING 1 WK POST CARCINOGEN TREATMENT (STUDY DURATION: 52 WK), Route [Inhibitor]: ORAL, Species: RAT, Strain/Sex: WISTAR/MALE, Target Tissue: Type of Lesion: STOMACH: ADENOCARCINOMA, Dose [Carcinogen]: 25 UG/ML IN DRINKING WATER FOR 25 WK, Promoter: SODIUM CHLORIDE, 7647-14-5) 17/19 (89%), 10/18 (56%), 37%, not significant; (Carcinogen: N-METHYL-N'-NITRO-N-NITROSOGUANIDINE, 70-25-7, Dose [Inhibitor]: 0, 8% IN DIET FOR 25 WK BEGINNING 1 WK POST CARCINOGEN TREATMENT (STUDY DURATION: 52 WK), Route [Inhibitor]: ORAL, Species: RAT, Strain/Sex: WISTAR/MALE, Target Tissue: Type of Lesion: STOMACH: ADENOCARCINOMA, Dose [Carcinogen]: 25 UG/ML IN DRINKING WATER FOR 25 WK, Promoter: SODIUM CHLORIDE, 7647-14-5) 17/19 (89%), 5/19 (26%), 71%, p<0.01.

Take `O=[As]O`: the “tumour outcome (control, treated, inhibition, significance)” value by setting is: (Carcinogen: NONE USED, Dose [Inhibitor]: 10 PPM IN DRINKING WATER DAILY FOR DURATION OF STUDY (STUDY DURATION: 16 MO), Route [Inhibitor]: ORAL, Species: MOUSE, Strain/Sex: C3H/FEMALE, Target Tissue: Type of Lesion: MAMMARY GLAND: ADENOCARCINOMA, Promoter: NONE USED) 82%, 27%, 67%, not calculated; (Carcinogen: NONE USED, Dose [Inhibitor]: 80 PPM IN DRINKING WATER DAILY STARTING AT AGE 1 MO AND CONTINUING FOR LIFE (STUDY DURATION: LIFE), Route [Inhibitor]: ORAL, Species: MOUSE, Strain/Sex: C3H/FEMALE, Target Tissue: Type of Lesion: MAMMARY GLAND: TUMOR, Promoter: NONE USED) 82%, 40%, 51%, p 0.02.

For the molecule `c1ccc2c(c1)c1cccc3ccc4cccc2c4c31`, the “tumour outcome (control, treated, inhibition, significance)” value is recorded as 14/50 (28%), 24/50 (48%), -71%, not calculated (Carcinogen: BENZO[A]PYRENE, 50-32-8, Dose [Inhibitor]: 5 UG IN 0.1 ML ACETONE 3/WK ADMINISTERED SIMULTANEOUSLY WITH CARCINOGEN FOR DURATION OF STUDY (STUDY DURATION: 368 D), Route [Inhibitor]: DERMAL, Species: MOUSE, Strain/Sex: ICR/FEMALE, Target Tissue: Type of Lesion: SKIN: PAPILLOMA, Dose [Carcinogen]: 5 UG IN 0.1 ML ACETONE 3/WK FOR DURATION OF STUDY, Promoter: NONE USED); 10/50 (20%), 9/50 (18%), 10%, not calculated (Carcinogen: BENZO[A]PYRENE, 50-32-8, Dose [Inhibitor]: 5 UG IN 0.1 ML ACETONE 3/WK ADMINISTERED SIMULTANEOUSLY WITH CARCINOGEN FOR DURATION OF STUDY (STUDY DURATION: 368 D), Route [Inhibitor]: DERMAL, Species: MOUSE, Strain/Sex: ICR/FEMALE, Target Tissue: Type of Lesion: SKIN: SQUAMOUS CARCINOMA, Dose [Carcinogen]: 5 UG IN 0.1 ML ACETONE 3/WK FOR DURATION OF STUDY, Promoter: NONE USED); 14/50 (28%), 33/50 (66%), -136%, not calculated (Carcinogen: BENZO[A]PYRENE, 50-32-8, Dose [Inhibitor]: 15 UG IN 0.1 ML ACETONE 3/WK ADMINISTERED SIMULTANEOUSLY WITH CARCINOGEN FOR DURATION OF STUDY (STUDY DURATION: 368 D), Route [Inhibitor]: DERMAL, Species: MOUSE, Strain/Sex: ICR/FEMALE, Target Tissue: Type of Lesion: SKIN: PAPILLOMA, Dose [Carcinogen]: 5 UG IN 0.1 ML ACETONE 3/WK FOR DURATION OF STUDY, Promoter: NONE USED); 10/50 (20%), 27/50 (54%), -170%, not calculated (Carcinogen: BENZO[A]PYRENE, 50-32-8, Dose [Inhibitor]: 15 UG IN 0.1 ML ACETONE 3/WK ADMINISTERED SIMULTANEOUSLY WITH CARCINOGEN FOR DURATION OF STUDY (STUDY DURATION: 368 D), Route [Inhibitor]: DERMAL, Species: MOUSE, Strain/Sex: ICR/FEMALE, Target Tissue: Type of Lesion: SKIN: SQUAMOUS CARCINOMA, Dose [Carcinogen]: 5 UG IN 0.1 ML ACETONE 3/WK FOR DURATION OF STUDY, Promoter: NONE USED).
